Where two headings read alike, the source gives them in different places.
Legend:
human NK-3 receptor = human NK-3 receptor (Homo sapiens (Human), UniProt P29371); experiment: 3H-SB222200 binding competition assay with human NK-3 receptor
Description: The affinity of compounds of the invention for the human NK-3 receptor was determined by measuring the ability of compounds of the invention to competitively and reversibly displace a well-characterized NK-3 radioligand in a concentration-dependent manner.
^3H-SB222200 Binding Competition Assay with Human NK-3 Receptor
The ability of compounds of the invention to inhibit the binding of the NK-3 receptor selective antagonist ^3H-SB222200 was assessed by an in vitro radioligand binding assay. Membranes were prepared from Chinese hamster ovary recombinant cells stably expressing the human NK-3 receptor. The membranes were incubated with 5 nM ^3H-SB222200 (ARC) in a HEPES 25 mM/NaCl 0.1M/CaCl2 1 mM/MgCl2 5 mM/BSA 0.5%/Saponin 10 μg/ml buffer at pH 7.4 and various concentrations of compounds of the invention. The amount of ^3H-SB222200 bound to the receptor was determined after filtration by the quantification of membrane associated radioactivity using the TopCount-NXT reader (Packard).

hERG channel = hERG channel (Homo sapiens (Human), UniProt Q12809); experiment: hERG inhibition assay (manual patch-clamp, HEK 293 cells); type: cell-based; details: HEK 293 cells stably transfected with hERG, read-out: CardioSafety (hERG IC50)
hERG channel, sequence (Q12809 whole entry): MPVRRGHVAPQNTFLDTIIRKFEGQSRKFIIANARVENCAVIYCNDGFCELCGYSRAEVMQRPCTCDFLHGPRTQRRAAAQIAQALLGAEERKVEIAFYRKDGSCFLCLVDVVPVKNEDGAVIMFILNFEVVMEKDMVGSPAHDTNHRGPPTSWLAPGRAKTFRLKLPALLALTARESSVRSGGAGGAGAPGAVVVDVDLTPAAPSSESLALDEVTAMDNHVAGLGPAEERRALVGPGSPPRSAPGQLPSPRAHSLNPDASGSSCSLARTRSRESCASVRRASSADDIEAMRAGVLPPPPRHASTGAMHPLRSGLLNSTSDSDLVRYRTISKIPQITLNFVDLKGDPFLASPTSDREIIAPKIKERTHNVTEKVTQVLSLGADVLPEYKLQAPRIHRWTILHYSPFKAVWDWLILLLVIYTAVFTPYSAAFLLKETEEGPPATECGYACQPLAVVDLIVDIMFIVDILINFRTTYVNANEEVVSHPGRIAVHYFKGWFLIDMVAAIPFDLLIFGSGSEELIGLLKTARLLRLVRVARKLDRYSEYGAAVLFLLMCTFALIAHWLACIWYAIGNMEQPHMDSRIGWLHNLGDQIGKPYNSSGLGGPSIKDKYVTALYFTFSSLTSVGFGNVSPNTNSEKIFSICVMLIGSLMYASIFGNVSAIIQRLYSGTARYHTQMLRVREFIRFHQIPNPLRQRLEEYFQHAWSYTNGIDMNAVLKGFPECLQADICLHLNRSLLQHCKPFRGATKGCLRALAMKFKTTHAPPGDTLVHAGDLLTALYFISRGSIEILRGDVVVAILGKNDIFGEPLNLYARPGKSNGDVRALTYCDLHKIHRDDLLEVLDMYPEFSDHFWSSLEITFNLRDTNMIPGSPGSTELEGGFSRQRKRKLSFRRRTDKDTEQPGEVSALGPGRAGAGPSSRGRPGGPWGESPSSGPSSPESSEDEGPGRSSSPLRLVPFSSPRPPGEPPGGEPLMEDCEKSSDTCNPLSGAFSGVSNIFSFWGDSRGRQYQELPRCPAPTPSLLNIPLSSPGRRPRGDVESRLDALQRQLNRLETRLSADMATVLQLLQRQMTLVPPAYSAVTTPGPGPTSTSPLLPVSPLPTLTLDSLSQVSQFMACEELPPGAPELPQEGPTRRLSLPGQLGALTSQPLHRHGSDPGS
Excerpt: The human ether-a-go-go related gene (hERG) encodes the inward rectifying voltage gated potassium channel in the heart (IKr) which is involved in cardiac repolarisation. […] IKr current inhibition accounts for the vast majority of known cases of drug-induced QT-prolongation. A number of drugs have been withdrawn from late stage clinical trials due to these cardiotoxic effects, therefore it is important to identify inhibitors early in drug discovery.
The hERG inhibition study aims at quantifying the in vitro effects of compounds of the invention on the potassium-selective IKr current generated in normoxic conditions in stably transfected HEK 293 cells with the human ether-a-go-go-related gene (hERG).
Whole-cell currents (acquisition by manual patch-clamp) elicited during a voltage pulse were recorded in baseline conditions and following application of tested compounds (5 minutes of exposure). The concentrations of tested compounds (0.3 μM; 3 μM; 10 μM; 30 μM) reflect a range believed to exceed the concentrations at expected efficacy doses in preclinical models. […]
The current density recorded were normalized against the baseline conditions and corrected for solvent effect and time-dependent current run-down using experimental design in test compound free conditions. […]

circulating LH levels = experiment: Castrated male rat model, circulating luteinizing hormone (LH), oral dosing; type: in vivo; details: castrated male SD rat; single oral dose less than or equal to 30 mg/kg; p<0.05
Description: In vivo Assay to Assess Compound Activity in Rat (Oral Dosing)
The effect of compounds of the invention to inhibit luteinizing hormone (LH) secretion is determined by the following biological studies.
Castrated Male Rat Model to Assess the Effect of Compound of Invention on Circulating Levels of Luteinizing Hormone (LH)
In humans and rodents, castration is well-precedented to permit heightened, persistent GnRH signaling and consequent elevation of circulating LH. Thus, a castrated rat model is used to provide a broad index for measurement of LH inhibition as a marker of test compound inhibition of the GnRH signaling pathway.
Castrated adult male Sprague-Dawley (SD) rats (150-175 g) were purchased from Janvier (St Berthevin, France). All animals were housed 2 per cage in a temperature-controlled room (22±2° C.) and 50±5% relative humidity with a 12 hour/12 hour light/dark cycles (lights off at 6 h00 pm). The animals were allowed 3 weeks of postoperative recovery prior to study. Animals were handled on a daily basis. Standard diet and tap water were provided ad libitum. Animal cage litters were changed once a week. […]
After basal sampling (TO) a single dose of compounds of the invention or vehicle was administrated orally to rats. […] Serum LH levels were determined using radioimmunoassay kit from RIAZEN—Rat LH, Zentech (Liège, Belgium). […]

[1] = CHO cell membranes, 5 nM 3H-SB222200, Table 2, read-out: Competitive binding assay with human NK-3 receptor hNK-3 (Ki)
[2] = Table 3 (selectivity table), read-out: hNK-3 (Ki)

human NK-3 receptor, sequence (P29371 whole entry): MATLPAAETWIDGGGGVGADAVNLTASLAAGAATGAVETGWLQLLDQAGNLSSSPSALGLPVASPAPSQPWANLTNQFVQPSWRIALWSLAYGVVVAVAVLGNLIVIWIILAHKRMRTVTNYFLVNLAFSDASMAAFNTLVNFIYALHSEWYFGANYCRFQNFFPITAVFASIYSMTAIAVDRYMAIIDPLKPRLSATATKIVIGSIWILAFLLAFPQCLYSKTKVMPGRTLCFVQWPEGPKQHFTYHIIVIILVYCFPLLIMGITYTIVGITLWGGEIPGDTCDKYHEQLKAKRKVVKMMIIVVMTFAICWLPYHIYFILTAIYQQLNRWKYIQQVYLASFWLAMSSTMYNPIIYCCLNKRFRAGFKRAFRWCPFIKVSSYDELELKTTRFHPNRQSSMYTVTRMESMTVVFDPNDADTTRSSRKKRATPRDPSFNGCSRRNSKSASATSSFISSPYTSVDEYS

Ki (human NK-3 receptor; [1]) [nM] | Ki (human NK-3 receptor; [2]) [nM] | Compound | IC50 (hERG channel) [nM] | Suppression of circulating LH levels (circulating LH levels)
48 | 48 | Cc1ccc(-c2nnc3n2CCN(C(=O)c2ccc(F)cc2)[C@@H]3C)o1 [Compound 1, (R)-(4-fluorophenyl)(8-methyl-3-(5-methylfuran-2-yl)-5,6-dihydro-[1,2,4]triazolo[4,3-a]pyrazin-7(8H)-yl)methanone] | 31000 | significantly suppressed circulating LH levels
22 | 22 | C[C@@H]1c2nnc(-c3csc(C(F)(F)F)n3)n2CCN1C(=O)c1ccc(F)cc1 [Compound 3, (R)-(4-fluorophenyl)(8-methyl-3-(2-(trifluoromethyl)thiazol-4-yl)-5,6-dihydro-[1,2,4]triazolo[4,3-a]pyrazin-7(8H)-yl)methanone] | 70000 | 

Source: patent US9840508B2, “N-acyl-(3-substituted)-(8-methyl)-5,6-dihydro-[1,2,4]triazolo[4,3-a] pyrazines as selective NK-3 receptor antagonists, pharmaceutical composition, methods for use in NK-3 receptor-mediated disorders” (EUROSCREEN SA, priority 2013, dated 2017)
